{
  "source": "patent US11839683B2",
  "about": "“Method of rapidly achieving therapeutic concentrations of triptans for treatment of migraines” (EMERGEX USA CORPORATION, priority 2016, dated 2023)",
  "key": {"migraine": {"test_system": "migraine", "conditions": "cited from earlier work"}, "[1]": {"conditions": "in vivo", "from_the_text": "(§1) This was a single-center, open-label, randomized five-way crossover study (Part 1) followed by a sequential study of two additional treatments (Parts 2 and 3). After obtaining informed consent and establishing eligibility, each subject received each of the seven study treatments once, followed by in-clinic monitoring and extensive blood sample collection for pharmacokinetic analysis. […] Plasma samples from the initial dosing days were sent to the analytical laboratory for analysis, and tolerability for each of the dose levels was summarized. […] During Part 3, subjects received a single 3.8 mg patch (applied with a 0.52 J applicator) and also completed identical procedures to the previous dosing days. After completion of the seven dosing days, subjects were assessed one final time and dismissed from the study.\n(§2) PK parameters were summarized by treatment group using descriptive statistics (arithmetic means, standard deviations, coefficients of variation, sample size, minimum, maximum, and median)."}, "clinical": {"experiment": "clinical", "conditions": "human, in vivo", "experimental": "The final treatment administered was 3.8 mg on a 10 cm^2 patch using an applicator with 0.52 Joule of application energy in the intracutaneous microneedle system described herein. The products tested were:\nas §1\nTwenty subjects were enrolled in the study, 10 males and 10 females. The subjects mean age was 29 years±3.5 years with a mean BMI of 24.4±3.5.\nas §2\nGraphs of apparent dose linearity and proportionality of PK parameters (AUCt, AUCinf and Cmax) were compiled."}, "[2]": {"conditions": "cited from earlier work"}, "[3]": {"conditions": "TABLET 80 mg, 1 hour, Sheftell et al 2003"}, "[4]": {"conditions": "TABLET 80 mg, 2 hour, Sheftell et al 2003"}, "[5]": {"conditions": "TABLET 80 mg, 4 hour, Sheftell et al 2003"}, "[6]": {"conditions": "TABLET 10 mg, 1 hour, Tfelt-Hansen et al, 1998"}, "[7]": {"conditions": "TABLET 10 mg, 2 hour, Tfelt-Hansen et al, 1998"}, "[8]": {"conditions": "WAFER 5 mg, 1 hour, Ahrens et al, 1999"}, "[9]": {"conditions": "WAFER 5 mg, 2 hour, Ahrens et al, 1999"}, "[10]": {"conditions": "WAFER 10 mg, 1 hour, Ahrens et al, 1999"}, "[11]": {"conditions": "WAFER 10 mg, 2 hour, Ahrens et al, 1999"}, "[12]": {"conditions": "TABLET 100 mg, 1 hour, Tfelt-Hansen et al, 1998"}, "[13]": {"conditions": "TABLET 100 mg, 2 hour, Tfelt-Hansen et al, 1998"}, "[14]": {"conditions": "TABLET 2.5 mg, 1 hour, Bomhof et al, 1999"}, "[15]": {"conditions": "TABLET 2.5 mg, 2 hour, Bomhof et al, 1999"}},
  "note": "Like-named read-outs stand apart in the source and are kept apart here.",
  "data": [
    {"smiles": "CN1CCC[C@@H]1Cc1c[nH]c2ccc(CCS(=O)(=O)c3ccccc3)cc12", "note": "[Eletriptan]", "values": [
      {"measurement": "% PAIN FREE", "setting": "migraine; [3]", "value": 10.0, "unit": "%"},
      {"measurement": "% PAIN RELIEF", "setting": "migraine; [3]", "value": 32.0, "unit": "%"},
      {"measurement": "% PAIN FREE", "setting": "migraine; [4]", "value": 27.0, "unit": "%"},
      {"measurement": "% PAIN RELIEF", "setting": "migraine; [4]", "value": 59.0, "unit": "%"},
      {"measurement": "% PAIN FREE", "setting": "migraine; [5]", "value": 49.0, "unit": "%"},
      {"measurement": "% PAIN RELIEF", "setting": "migraine; [5]", "value": 79.0, "unit": "%"}
    ]},
    {"smiles": "CNCCc1c[nH]c2ccc(C[C@H]3COC(=O)N3)cc12", "note": "[N-desmethyl zolmitriptan]", "values": [
      {"measurement": "Mean AUCinf of N-desmethyl metabolite", "setting": "[1]; human", "value": 14.55, "unit": "ng·H/mL"},
      {"measurement": "Mean Cmax of N-desmethyl metabolite", "setting": "[1]; human", "value": 2.08, "unit": "ng/mL"},
      {"measurement": "Tmax of N-desmethyl metabolite", "setting": "[1]; human", "value": "54.7 to 65.0", "unit": "min"},
      {"measurement": "Mean AUCinf of N-desmethyl metabolite", "setting": "[1]; human, 0.48 mg", "value": 1.38, "unit": "ng·H/mL"},
      {"measurement": "Mean Cmax of N-desmethyl metabolite", "setting": "[1]; human, 0.48 mg", "value": 0.22, "unit": "ng/mL"},
      {"measurement": "Mean AUCinf of N-desmethyl metabolite", "setting": "[1]; human, 3.8 mg", "value": 8.17, "unit": "ng·H/mL"},
      {"measurement": "Mean Cmax of N-desmethyl metabolite", "setting": "[1]; human, 3.8 mg", "value": 1.77, "unit": "ng/mL"},
      {"measurement": "elimination half life (t1/2) of the metabolite", "setting": "[1]; human, po", "value": "2.7-3.31 H"},
      {"measurement": "time to peak plasma concentration of the N-desmethyl metabolite", "setting": "[1]", "value": "around 1 hour"},
      {"measurement": "time to peak plasma concentration of the N-desmethyl metabolite", "setting": "[1]; po", "value": 2.7, "unit": "h"}
    ]},
    {"smiles": "CN(C)CCc1c[nH]c2ccc(C[C@H]3COC(=O)N3)cc12", "note": "[Oral Zolmi]", "values": [
      {"measurement": "AUC0-last/Dose", "setting": "clinical; po, 2.5 mg", "value": 8.6},
      {"measurement": "Tmax Med (Range)", "setting": "clinical; po, 2.5 mg", "value": "60 (30-240)"}
    ]},
    {"smiles": "CN(C)CCc1c[nH]c2ccc(Cn3cncn3)cc12", "note": "[Rizatriptan]", "values": [
      {"measurement": "% PAIN FREE", "setting": "migraine; [6]", "value": 10.4, "unit": "%"},
      {"measurement": "% PAIN RELIEF", "setting": "migraine; [6]", "value": 36.6, "unit": "%"},
      {"measurement": "% PAIN FREE", "setting": "migraine; [7]", "value": 40.3, "unit": "%"},
      {"measurement": "% PAIN RELIEF", "setting": "migraine; [7]", "value": 67.0, "unit": "%"},
      {"measurement": "% PAIN FREE", "setting": "migraine; [8]", "value": 7.7, "unit": "%"},
      {"measurement": "% PAIN RELIEF", "setting": "migraine; [8]", "value": 39.8, "unit": "%"},
      {"measurement": "% PAIN FREE", "setting": "migraine; [9]", "value": 34.8, "unit": "%"},
      {"measurement": "% PAIN RELIEF", "setting": "migraine; [9]", "value": 58.6, "unit": "%"},
      {"measurement": "% PAIN FREE", "setting": "migraine; [10]", "value": 13.0, "unit": "%"},
      {"measurement": "% PAIN RELIEF", "setting": "migraine; [10]", "value": 44.9, "unit": "%"},
      {"measurement": "% PAIN FREE", "setting": "migraine; [11]", "value": 42.2, "unit": "%"},
      {"measurement": "% PAIN RELIEF", "setting": "migraine; [11]", "value": 74.1, "unit": "%"}
    ]},
    {"smiles": "CNS(=O)(=O)Cc1ccc2[nH]cc(CCN(C)C)c2c1", "note": "[SC Suma]", "values": [
      {"measurement": "Tmax Med (Range)", "setting": "clinical; sc, 6 mg", "value": "10 (5-20)"}
    ]},
    {"smiles": "CNS(=O)(=O)Cc1ccc2[nH]cc(CCN(C)C)c2c1", "note": "[Sumatriptan, sumatriptan]", "values": [
      {"measurement": "% PAIN FREE", "setting": "migraine; [12]", "value": 7.8, "unit": "%"},
      {"measurement": "% PAIN RELIEF", "setting": "migraine; [12]", "value": 27.9, "unit": "%"},
      {"measurement": "% PAIN FREE", "setting": "migraine; [13]", "value": 32.8, "unit": "%"},
      {"measurement": "% PAIN RELIEF", "setting": "migraine; [13]", "value": 61.8, "unit": "%"},
      {"measurement": "Tmax after oral tablet administration", "setting": "[2]; oral tablet", "value": "about 2 hours"},
      {"measurement": "bioavailability, oral administration (as a succinate)", "setting": "[2]; oral", "value": "about 15%"},
      {"measurement": "Tmax achieved earlier than the conventional tablet", "setting": "[2]; rapid-release tablet formulation, on average", "value": "10 to 15", "unit": "min"}
    ]},
    {"smiles": "CN[C@@H]1CCc2[nH]c3ccc(C(N)=O)cc3c2C1", "note": "[frovatriptan]", "values": [
      {"measurement": "efficacy in 2-hour response, 2-hour pain free compared to the other triptans", "setting": "migraine; oral", "value": "lowest efficacy"}
    ]},
    {"smiles": "CNS(=O)(=O)CCc1ccc2[nH]cc(C3CCN(C)CC3)c2c1", "note": "[naratriptan]", "values": [
      {"measurement": "% PAIN FREE", "setting": "migraine; [14]", "value": 3.3, "unit": "%"},
      {"measurement": "% PAIN RELIEF", "setting": "migraine; [14]", "value": 27.7, "unit": "%"},
      {"measurement": "% PAIN FREE", "setting": "migraine; [15]", "value": 20.7, "unit": "%"},
      {"measurement": "% PAIN RELIEF", "setting": "migraine; [15]", "value": 48.4, "unit": "%"},
      {"measurement": "pain freedom at 2 hours", "setting": "migraine; lowest oral dose", "value": 18, "unit": "%"},
      {"measurement": "pain relief at 2 hours", "setting": "migraine; lowest oral dose", "value": 49, "unit": "%"}
    ]}
  ]
}
